Experimental findings from ChEMBL document CHEMBL4823287, “Design and synthesis of novel 5-alkynyl pyrimidine nucleosides derivatives: Influence of C-6-substituent on antituberculosis activity” (2021) are described below.

Experiment [1] has as its system Mycobacterium tuberculosis. The experiment is described as follows: Antimycobacterial activity against Mycobacterium bovis BCG assessed as inhibition of bacterial growth at measured by microplate alamar blue assay. The settings on record: variant bovis BCG. It counts as functional. (Resazurin is reduced to fluorescent resorufin, in cell work by metabolically active cells.)

Experiment [2] concerns Mycobacterium tuberculosis. In words: Antimycobacterial activity against Mycobacterium bovis BCG assessed as inhibition of bacterial growth at 50 ug/ml measured by microplate alamar blue assay. It counts as functional. The following applies: variant bovis BCG.
In experiment [3] the test system is Mycobacterium tuberculosis. In words: Antimycobacterial activity against Mycobacterium bovis BCG assessed as inhibition of bacterial growth at 1 to 5 ug/ml measured by microplate alamar blue assay. It counts as functional, variant bovis BCG. The settings on record: dose 1-5 µg/ml; at 1 to 5 µg/mL.
Experiment [4] concerns Mycobacterium tuberculosis. The experiment is described as follows: Antimycobacterial activity against Mycobacterium bovis BCG assessed as inhibition of bacterial growth at 25 ug/ml measured by microplate alamar blue assay. It counts as functional. The settings on record: variant bovis BCG.
Experiment [5] deals with Mycobacterium tuberculosis. The experiment is described as follows: Antimycobacterial activity against Mycobacterium bovis BCG assessed as inhibition of bacterial growth at 1 ug/ml measured by microplate alamar blue assay. It counts as functional. The settings on record: variant bovis BCG.
Experiment [6] concerns Mycobacterium tuberculosis. The experiment is described as follows: Antimycobacterial activity against Mycobacterium bovis BCG assessed as inhibition of bacterial growth at 100 ug/ml measured by microplate alamar blue assay. The following applies: variant bovis BCG. It counts as functional.
Experiment [7] has as its system Mycobacterium tuberculosis. The experiment is described as follows: Antimycobacterial activity against Mycobacterium bovis BCG assessed as inhibition of bacterial growth at 10 ug/ml measured by microplate alamar blue assay. It counts as functional. The settings on record: variant bovis BCG.
Experiment [8] concerns Mycobacterium tuberculosis. The experiment is described as follows: Antimycobacterial activity against Mycobacterium bovis BCG assessed as inhibition of bacterial growth at 5 ug/ml measured by microplate alamar blue assay. It counts as functional. The following applies: variant bovis BCG.

≈ marks a conversion by molar mass, not a printed value. Bounds are passed on as bounds.

The term MIC50 denotes an inhibitory concentration at the 50% level, which refers to growth in some studies and to a panel of isolates in others. In general, inhibition refers to the relative decrease from the control value, in per cent. In the case of `CCCCC#Cc1c(C)n([C@@H]2O[C@H](CO)[C@@H](O)[C@H]2O)c(=O)[nH]c1=O`, in experiment [1], the MIC50 turned out to be 18.6 µg/mL (≈ 55 µM). Moreover, the inhibition at 50 µg/mL in experiment [2] amounted to 100%. Further, the “inhibition (INH)” value in experiment [3] came to 10%. For the same molecule, in experiment [4], the inhibition at 25 µg/mL was found to be 60%.
As to `Cc1c(C#CC(O)c2ccccc2)c(=O)[nH]c(=O)n1[C@@H]1O[C@H](CO)[C@@H](O)[C@H]1O` (stereo partly specified), the MIC50 in experiment [1] was 0.7 µg/mL (≈ 1.8 µM). In experiment [5], the inhibition at 1 µg/mL is 100%.
As to `CC#Cc1c(C)n([C@@H]2O[C@H](CO)[C@@H](O)[C@H]2O)c(=O)[nH]c1=O`, the MIC50 in experiment [1] was determined as 50 µg/mL (≈ 169 µM). Also, the inhibition at 50 µg/mL in experiment [2] was 50%. Moreover, the inhibition at 100 µg/mL in experiment [6] is 90%. In addition, the inhibition at 10 µg/mL in experiment [7] amounted to 0%.
`CCCCCCC#Cc1c(C)n([C@@H]2O[C@H](CO)[C@@H](O)[C@H]2O)c(=O)[nH]c1=O`: in experiment [1], the MIC50 is under 50 µg/mL. The inhibition at 50 µg/mL in experiment [2] worked out at 60%. In addition, the inhibition at 100 µg/mL in experiment [6] stood at 90%.
Consider `Cc1c(C#CC2CC2)c(=O)[nH]c(=O)n1[C@@H]1O[C@H](CO)[C@@H](O)[C@H]1O`, for which the MIC50 in experiment [1] came to 2.1 µg/mL (≈ 6.52 µM). Besides, the “inhibition (INH)” value in experiment [3] is 50%. The inhibition at 100 µg/mL in experiment [6] amounted to 90%. In addition, the inhibition at 10 µg/mL in experiment [7] was found to be 80%.
`Cc1c(C#C[Si](C)(C)C)c(=O)[nH]c(=O)n1[C@@H]1O[C@H](CO)[C@@H](O)[C@H]1O`: the inhibition at 100 µg/mL in experiment [6] was 0%.
Regarding `CCCC#Cc1c(C)n([C@@H]2O[C@H](CO)[C@@H](O)[C@H]2O)c(=O)[nH]c1=O`, the MIC50 in experiment [1] was under 50 µg/mL. Moreover, the inhibition at 50 µg/mL in experiment [2] worked out at 60%. For the same molecule, the inhibition at 100 µg/mL in experiment [6] turned out to be 90%. In addition, the inhibition at 10 µg/mL in experiment [7] is 0%.
For the molecule `Cc1c(C#CC2CCCCC2)c(=O)[nH]c(=O)n1[C@@H]1O[C@H](CO)[C@@H](O)[C@H]1O`, in experiment [1], the MIC50 stood at 14.7 µg/mL (≈ 40.3 µM). For the same molecule, the inhibition at 50 µg/mL in experiment [2] came out at 100%. Besides, the “inhibition (INH)” value in experiment [3] amounted to 10%. Further, in experiment [4], the inhibition at 25 µg/mL came out at 70%.
Consider `Cc1c(C#Cc2ccccc2)c(=O)[nH]c(=O)n1[C@@H]1O[C@H](CO)[C@@H](O)[C@H]1O`, for which the MIC50 in experiment [1] amounted to 2.2 µg/mL (≈ 6.14 µM). In addition, in experiment [2], the inhibition at 50 µg/mL was 75%. In addition, in experiment [3], the “inhibition (INH)” value stood at 50%. Moreover, the inhibition at 100 µg/mL in experiment [6] was determined as 90%. The inhibition at 10 µg/mL in experiment [7] came to 75%.
For `CCC#Cc1c(C)n([C@@H]2O[C@H](CO)[C@@H](O)[C@H]2O)c(=O)[nH]c1=O`, the MIC50 in experiment [1] worked out at 50 µg/mL (≈ 161 µM). In addition, the inhibition at 50 µg/mL in experiment [2] was 50%. Besides, the inhibition at 100 µg/mL in experiment [6] amounted to 90%. Besides, the inhibition at 10 µg/mL in experiment [7] worked out at 0%.
For `Cc1c(C#CCC(C)C)c(=O)[nH]c(=O)n1[C@@H]1O[C@H](CO)[C@@H](O)[C@H]1O`, the MIC50 in experiment [1] is 18.9 µg/mL (≈ 55.9 µM). In addition, the inhibition at 50 µg/mL in experiment [2] is 100%. Further, the “inhibition (INH)” value in experiment [3] was determined as 10%. Also, the inhibition at 25 µg/mL in experiment [4] is 60%.
For the molecule `N[C@@H]1CONC1=O` [CYCLOSERINE], the MIC50 in experiment [1] was 5.1 µg/mL (≈ 50 µM). For the same molecule, the inhibition at 5 µg/mL in experiment [8] stood at 50%. Further, in experiment [7], the inhibition at 10 µg/mL stood at 71%.
Consider `NNC(=O)c1ccncc1` [ISONIAZID], for which the MIC50 in experiment [1] was 0.9 µg/mL (≈ 6.56 µM). For the same molecule, in experiment [5], the inhibition at 1 µg/mL amounted to 100%.
The like results for `CO[C@H]1/C=C/O[C@@]2(C)Oc3c(C)c(O)c4c(O)c(c(/C=N/N5CCN(C)CC5)c(O)c4c3C2=O)NC(=O)/C(C)=C\C=C\[C@H](C)[C@H](O)[C@@H](C)[C@@H](O)[C@@H](C)[C@H](OC(C)=O)[C@@H]1C` [RIFAMPIN] were, in that order, 0.8 µg/mL (≈ 0.972 µM) and 100%.
